Laboratory results: publication PMC4433267, “Corosolic Acid Inhibits Hepatocellular Carcinoma Cell Migration by Targeting the VEGFR2/Src/FAK Pathway” (PLoS ONE, 2015)

Biological target: VEGFR2 (KDR) (Homo sapiens, UniProt P35968)
Assay: ADP-Glo kinase assay with purified KDR (Promega V2681), […] ATP
Type: biochemical

VEGFR2 (KDR), sequence (P35968 20-1356): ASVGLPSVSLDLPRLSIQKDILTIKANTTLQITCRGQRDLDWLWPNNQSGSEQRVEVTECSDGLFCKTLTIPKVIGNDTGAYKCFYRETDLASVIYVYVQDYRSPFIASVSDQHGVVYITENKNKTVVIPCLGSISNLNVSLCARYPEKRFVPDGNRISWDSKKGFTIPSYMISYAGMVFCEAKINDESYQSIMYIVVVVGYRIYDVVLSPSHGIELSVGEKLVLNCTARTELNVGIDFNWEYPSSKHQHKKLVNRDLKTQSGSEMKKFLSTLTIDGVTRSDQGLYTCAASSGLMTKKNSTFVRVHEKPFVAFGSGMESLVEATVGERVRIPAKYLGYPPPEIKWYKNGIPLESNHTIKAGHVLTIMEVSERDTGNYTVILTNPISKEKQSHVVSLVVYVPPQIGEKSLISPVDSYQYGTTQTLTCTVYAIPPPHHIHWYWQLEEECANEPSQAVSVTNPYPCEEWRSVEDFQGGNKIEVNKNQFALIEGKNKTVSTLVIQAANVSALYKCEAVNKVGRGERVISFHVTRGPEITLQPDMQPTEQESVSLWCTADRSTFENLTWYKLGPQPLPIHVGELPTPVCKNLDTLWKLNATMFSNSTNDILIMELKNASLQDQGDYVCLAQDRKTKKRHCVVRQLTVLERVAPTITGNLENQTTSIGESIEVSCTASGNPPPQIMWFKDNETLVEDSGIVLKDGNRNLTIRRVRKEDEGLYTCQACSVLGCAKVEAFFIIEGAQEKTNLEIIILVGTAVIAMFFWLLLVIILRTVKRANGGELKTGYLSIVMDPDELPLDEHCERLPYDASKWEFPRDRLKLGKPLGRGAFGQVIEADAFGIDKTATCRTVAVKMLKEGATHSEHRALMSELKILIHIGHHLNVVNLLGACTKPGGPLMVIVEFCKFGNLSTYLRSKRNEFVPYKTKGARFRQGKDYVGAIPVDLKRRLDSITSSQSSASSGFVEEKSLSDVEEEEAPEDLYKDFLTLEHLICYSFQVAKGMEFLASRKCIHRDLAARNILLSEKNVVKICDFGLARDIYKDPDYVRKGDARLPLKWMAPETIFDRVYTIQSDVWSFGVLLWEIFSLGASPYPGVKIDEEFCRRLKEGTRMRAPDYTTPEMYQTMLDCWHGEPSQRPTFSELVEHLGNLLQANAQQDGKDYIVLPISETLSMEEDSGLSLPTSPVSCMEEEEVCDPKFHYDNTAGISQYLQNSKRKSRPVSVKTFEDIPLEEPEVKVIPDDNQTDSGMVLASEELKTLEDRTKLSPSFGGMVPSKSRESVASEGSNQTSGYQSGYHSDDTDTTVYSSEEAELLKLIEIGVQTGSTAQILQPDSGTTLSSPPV

Compound `C[C@H]1[C@H](C)CC[C@]2(C(=O)O)CC[C@]3(C)C(=CC[C@@H]4[C@@]5(C)C[C@@H](O)[C@H](O)C(C)(C)[C@@H]5CC[C@]43C)[C@H]12` [CA, corosolic acid] has an IC50 of 950 nM.
